Series [1] is described as follows: Plasma protein binding assay, human plasma (hPPB). The class given is in vitro ADME. The following applies: 5 μM, equilibrium dialysis 4 hours at 37° C. How it is done: (§1) Plasma Protein Binding Assay The plasma protein binding was determined by the equilibrium dialysis method. A known concentration of compound (5 μM) in previously frozen human or mouse plasma (Sera Labs) was dialysed against phosphate buffer using a RED device (Life Technologies) for 4 hours at 37° C. The concentration of compound in the protein containing (PC) and protein free (PF) sides of the dialysis membrane were determined by LC-MS/MS and the % free compound was determined by equation 4. Data analysis was performed using Excel (Microsoft, USA). % free=(1−((PC−PF)/PC))×100 (4) hPPB (human plasma protein binding) and mPPB (mouse plasma protein binding) results are described in Tables 1-2.

A short description of series [2]: Microsomal stability assay, human liver microsomes (HLM). The format is in vitro ADME. The following applies: 0.5 mg/mL protein, 1 μM substrate, 37° C. The protocol:
(§2) Microsomal Stability Assay
(§3) The stability studies were performed manually using the substrate depletion approach. Test compounds were incubated at 37° C. with cryo-preserved mouse or human liver microsomes (Corning) at a protein concentration of 0.5 mg·mL^−1 and a final substrate concentration of 1 μM. Aliquots were removed from the incubation at defined timepoints and the reaction was terminated by adding to ice-cold organic solvent. Compound concentrations were determined by LC-MS/MS analysis. The natural log of the percentage of compound remaining was plotted against each time point and the slope determined. The half-life (t1/2) and CLint were calculated using Equations 1 and 2, respectively.
(§4) HLM (human liver microsomes) and MLM (mouse liver microsomes) stability assay results are described in Tables 1-2.
(Liver microsomes are a subcellular fraction often used to study metabolism.)

A further series can be described thus: FeSSIF solubility assay. The following applies: fed state simulated intestinal fluid (FeSSIF), thermodynamic from solid, pH 5 acetate buffer, 37° C., read-out: FESSIF Sol. The format is physicochemical. How it is done:
FeSSIF Solubility Assay 1 mL of fed state simulated intestinal fluid (FeSSIF), prepared using FaSSIF/FeSSIF/FaSSGF powder (Biorelevant.com) and pH 5 acetate buffer, was added to 1.0 mg of compound and then incubated for 24 h (Bioshake iQ, 650 rpm, 37° C.). Following filtration under positive pressure, the concentration of compound in solution was assessed by LC-UV in comparison to the response for a calibration standard of known concentration (250 μM). FeSSIF solubility results are described in Tables 1-2.

Series [3] is described as follows: Microsomal stability assay, mouse liver microsomes (MLM). The following applies: 0.5 mg/mL protein, 1 μM substrate. The format is in vitro ADME. The protocol:
as §2, §3, §4

Series [4] relates to constitutive ERK phosphorylation in HCT-116 cells. As to the kind of experiment: HCT-116 AlphaLISA SureFire pERK1/2 cellular assay. The class given is cell-based, human. The following applies: Homo sapiens, read-out: pERK HCT116 (2 hr) Abs pIC50 (converted). How it is done: HCT-116 AlphaLISA SureFire pERK1/2 Cellular Assay […] […] Assay read outs took place 2 or 24 hours after dosing with compounds. On the first day, HCT-116 cells were harvested, resuspended in growth medium (McCoys5A with Glutamax (Life Technologies 36600021) and 10% heat-inactivated fetal bovine serum (Sigma F9665)), and counted. Cells were plated in 100 μl per well in each well of a 96-well culture dish (Sigma CLS3598) to a final density of 30,000 (2 hr read) or 15,000 (24 hr read) cells per well and incubated over night at 37° C. and 5% CO2. On day 2, the growth medium was exchanged for dosing medium (McCoys5A with Glutamax (Life Technologies 36600021) and 1% heat-inactivated fetal bovine serum (Sigma F9665)) and the cells were dosed with compounds to produce a 10-point dose response, where the top concentration was 1 μM and subsequent concentrations were at 1/3 log dilution intervals. A matched DMSO control was included. The cells were subsequently incubated for either 2 or 24 hours at 37° C. and 5% CO2. After incubation, media was removed and the cells were incubated with lysis buffer containing phosphatase inhibitors for 15 minutes at room temperature. Cell lysates were transferred to a 12 area 96 well white Optiplate™ (Perkin Elmer 6005569) and incubated with anti-mouse IgG acceptor beads, a biotinylated anti-ERK1/2 rabbit antibody recognizing both phosphorylated and non-phosphorylated ERK1/2, a mouse antibody targeted to the Thr202/Tyr204 epitope and recognizing phosphorylated ERK proteins only, and streptavidin-coated donor beads. The biotinylated antibody binds to the streptavidin-coated donor beads and the phopsho-ERK1/2 antibody binds to the acceptor beads. […] Both antibodies bound to phosphorylated ERK proteins, bringing the donor and acceptor beads into close proximity. All data were analyzed using the Dotmatics or GraphPad Prism software packages. Inhibition of ERK phosphorylation was assessed by determination of the absolute IC50 value, which is defined as the concentration of compound required to decrease the level of phosphorylated ERK proteins by 50% when compared to DMSO control.
In general terms: Bead proximity is the source of the signal in Alpha formats.

Series [5] is described as follows: Plasma protein binding assay, mouse plasma (mPPB). The following applies: 5 μM, equilibrium dialysis 4 hours at 37° C. The format is in vitro ADME. The protocol: as §1
Series [6] is described as follows: Solubility (Sol), medium not stated. The format is physicochemical. The following applies: cells not marked (FESSIF).
The mark [7] stands for this setting: HCT-116, HCT116 cells, 2 hr, Abs.

One may read the microsomal CLint as the rate of metabolic loss divided by the concentration.

Each structure is given as a SMILES string. Values after ≈ are worked out from the molar mass of the structure shown. Read-outs that look alike come from different tables or passages of the source. Some results are limits rather than exact numbers.

In the case of `CC(C)(C)c1cc(-c2c[nH]c(C3COc4ccc(Oc5ccnc6c5CCC(=O)N6)cc4C3)n2)ccn1` (stereo not shown) [Compound 121, 5-[3-[4-(2-tert-butyl-4-pyridyl)-1H-imidazol-2-yl]chroman-6-yl]oxy-3,4-dihydro-1H-1,8-naphthyridin-2-one], the “hPPB (% free)” value in series [1] was 0.4 % free. The microsomal CLint at 1 μM in series [2] was determined as 207 µL/min/mg; in series [3] (37° C.), 137 µL/min/mg. Besides, in the series “FeSSIF solubility assay”, the solubility thermodynamic at 24 h is 38.2 µg/mL (≈ 77.1 µM). Further, the IC50 in series [4] (setting [7]) was above 1000 nM. The “mPPB (% free)” value in series [5] came out at 0.4 % free.
The compound `O=C1CCc2c(Oc3ccc4c(c3)CC(c3cc(-c5ccc(Cl)cc5)n[nH]3)CO4)ccnc2N1` (stereo not shown) [Compound 39] came in with a Sol in series [6] below 1.2 mg/L. In series [3], the microsomal CLint at 1 μM came out at 15.4 µL/min/mg.
Take `CC(C(=O)Nc1cc(Oc2ccc3c(c2)CC(c2nc(-c4ccccc4)c[nH]2)CO3)ccn1)N1CCOCC1` (stereo not shown) [Compound 150, 2-morpholino-N-[4-[3-(4-phenyl-1H-imidazol-2-yl)chroman-6-yl]oxy-2-pyridyl]propanamide]: in “FeSSIF solubility assay”, the solubility thermodynamic at 24 h is 235 µg/mL (≈ 448 µM). In addition, the IC50 in series [4] (HCT-116, 2 h) is above 1000 nM.
Consider `Cn1ncc2cc(-c3c[nH]c(C4COc5ccc(Oc6ccnc7c6CCC(=O)N7)cc5C4)n3)ccc21` (stereo not shown) [Compound 131, 5-[3-[4-(1-methylindazol-5-yl)-1H-imidazol-2-yl]chroman-6-yl]oxy-3,4-dihydro-1H-1,8-naphthyridin-2-one], for which, in “FeSSIF solubility assay”, the solubility thermodynamic at 24 h is 12.2 µg/mL (≈ 24.8 µM). In addition, the IC50 in series [4] (setting [7]) is above 1000 nM.
For `Cc1cc(-c2ccc3[nH]c(N4CCc5ccc(Oc6ccnc7c6CCC(=O)N7)cc5C4)nc3c2)n(C)n1` [Compound 163] the same measures were below 1.3 µg/mL and above 1000 nM.
The like results for `Cc1nn(C)cc1-c1c[nH]c(C2COc3ccc(Oc4ccnc5c4CCC(=O)N5)cc3C2)n1` (stereo not shown) [Compound 109, 5-[3-[4-(1,3-dimethylpyrazol-4-yl)-1H-imidazol-2-yl]chroman-6-yl]oxy-3,4-dihydro-1H-1,8-naphthyridin-2-one] were, in that order, below 1.1 µg/mL and above 1000 nM.
As for `O=C1CCc2c(Oc3ccc4c(c3)CC(c3nc(-c5ccnc(C6CC6)c5)c[nH]3)CO4)ccnc2N1` (stereo not shown) [Compound 119, 5-[3-[4-(2-cyclopropyl-4-pyridyl)-1H-imidazol-2-yl]chroman-6-yl]oxy-3,4-dihydro-1H-1,8-naphthyridin-2-one], the “hPPB (% free)” value in series [1] turned out to be 0.6 % free. Moreover, the results for the microsomal CLint at 1 μM in series [2] and in series [3] (37° C.) were 74.2 µL/min/mg and 35.8 µL/min/mg, respectively. In “FeSSIF solubility assay”, the solubility thermodynamic at 24 h was below 1.2 µg/mL. The IC50 in series [4] (setting [7]) is 724 nM. In series [5], the “mPPB (% free)” value turned out to be 0.9 % free.
As for `COc1ccc(-c2cc(C3COc4ccc(Oc5ccnc6c5CCC(=O)N6)cc4C3)[nH]n2)cc1` (stereo not shown) [Compound 43], in series [6], the Sol is on record as below 1.2 mg/L. The microsomal CLint at 1 μM in series [3] amounted to 23.2 µL/min/mg.
Regarding `c1ccc(-c2c[nH]c(C3COc4ccc(Oc5ccnc(NC6CCC6)c5)cc4C3)n2)cc1` (stereo not shown) [Compound 142, N-cyclobutyl-4-[3-(4-phenyl-1H-imidazol-2-yl)chroman-6-yl]oxy-pyridin-2-amine], the solubility thermodynamic at 24 h in the series “FeSSIF solubility assay” was 135 µg/mL (≈ 309 µM). Moreover, the IC50 in series [4] (setting [7]) is above 1000 nM.
For `CCCc1ccc2[nH]c(N3CCc4ccc(Oc5ccnc6c5CCC(=O)N6)cc4C3)nc2c1` [Compound 161, 5-[[2-(5-propyl-1H-benzimidazol-2-yl)-3,4-dihydro-1H-isoquinolin-7-yl]oxy]-3,4-dihydro-1H-1,8-naphthyridin-2-one] the same measures were below 1.1 µg/mL and 562 nM.
For `O=C1CCc2c(Oc3ccc4c(c3)CN(c3nc5ccccc5[nH]3)CC4)ccnc2N1` [Compound 159, 5-[[2-(1H-benzimidazol-2-yl)-3,4-dihydro-1H-isoquinolin-7-yl]oxy]-3,4-dihydro-1H-1,8-naphthyridin-2-one], the “hPPB (% free)” value in series [1] stood at 1.0 % free. Also, the microsomal CLint at 1 μM in series [2] was determined as 19.8 µL/min/mg; in series [3] (37° C.) it was 34.4 µL/min/mg. The solubility thermodynamic at 24 h in “FeSSIF solubility assay” is below 1 µg/mL. Moreover, in series [4] (setting [7]), the IC50 was above 1000 nM. Besides, the “mPPB (% free)” value in series [5] is reported as 0.5 % free.
Turning to `CC(C)c1cc(-c2c[nH]c(C3COc4ccc(Oc5ccnc6c5CCC(=O)N6)cc4C3)n2)ccn1` (stereo not shown) [Compound 120, 5-[3-[4-(2-isopropyl-4-pyridyl)-1H-imidazol-2-yl]chroman-6-yl]oxy-3,4-dihydro-1H-1,8-naphthyridin-2-one], the “hPPB (% free)” value in series [1] amounted to 0.9 % free. Besides, the values for the microsomal CLint at 1 μM in series [2] and in series [3] (37° C.) were 190 µL/min/mg and 89 µL/min/mg, respectively. The solubility thermodynamic at 24 h in “FeSSIF solubility assay” was 1.3 µg/mL (≈ 2.7 µM). For the same compound, the IC50 in series [4] (setting [7]) is 955 nM. Also, the “mPPB (% free)” value in series [5] is listed as 0.6 % free.
Take `O=C1CCc2c(Oc3ccc4c(c3)CN(c3nc5cc(-c6ccccc6)ccc5[nH]3)CC4)ccnc2N1` [Compound 162, 5-[[2-(5-phenyl-1H-benzimidazol-2-yl)-3,4-dihydro-1H-isoquinolin-7-yl]oxy]-3,4-dihydro-1H-1,8-naphthyridin-2-one]: the solubility thermodynamic at 24 h in “FeSSIF solubility assay” was 13.7 µg/mL (≈ 28.1 µM). Moreover, the IC50 in series [4] (setting [7]) is above 1000 nM.
In the case of `CC(=O)N1CCc2nc(C3COc4ccc(Oc5ccnc6c5CCC(=O)N6)cc4C3)[nH]c2C1` (stereo not shown) [Compound 135, 5-[3-(5-acetyl-3,4,6,7-tetrahydroimidazo[4,5-c]pyridin-2-yl)chroman-6-yl]oxy-3,4-dihydro-1H-1,8-naphthyridin-2-one], the solubility thermodynamic at 24 h in the series “FeSSIF solubility assay” is 33.2 µg/mL (≈ 72.3 µM). The IC50 in series [4] (HCT-116, 2 h) is above 1000 nM.
For `CC(C)N1CCc2nc(C3COc4ccc(Oc5ccnc6c5CCC(=O)N6)cc4C3)[nH]c2C1` (stereo not shown) [Compound 133, 5-[3-(5-isopropyl-3,4,6,7-tetrahydroimidazo[4,5-c]pyridin-2-yl)chroman-6-yl]oxy-3,4-dihydro-1H-1,8-naphthyridin-2-one], the solubility thermodynamic at 24 h in the series “FeSSIF solubility assay” was 661 µg/mL (≈ 1440 µM). Further, the IC50 in series [4] (setting [7]) is above 1000 nM.

The record behind these values is patent US12304912B2, “Fused bicyclic RAF inhibitors and methods for use thereof” (Jazz Pharmaceuticals Ireland Limited, priority 2020, dated 2025).
